One series concerns U-937 cell line. The series can be described thus: Death induction by amide library, MTS dye reduction. It is filed as cell-based, human. As to the method:
Compounds were tested in a U937 cell assay as previously described by Hergenrother et al. (see Hergenrother 2003 and U.S. 60/516,566).
The ability of the 100 amides thus produced to induce death in cancer cells was assessed by an assay based on the reduction of the MTS (3-(4,5-dimethylthiazol-2-yl)-5-(3-carboxymethoxyphenyl)-2-(4-sulfophenyl)-2H-tetrazolium, inner salt) dye. This tetrazolium dye is rapidly converted to the formazan product by living cells, and therefore provides a sensitive readout of cell life or death that can be monitored at 490 nm.
(Tetrazolium dyes change colour on reduction, which living cells bring about.)

The test system of series [1] is U-937 cells. The series can be described thus: cells. It counts as cell-based, human. The conditions noted are these: Homo sapiens; Table 13, U-937.
The next series relates to UACC-62. As to the kind of experiment: Death induction in melanoma cell line. It counts as cell-based, human. The conditions noted are these: Homo sapiens; Table 13, UACC-62 melanoma; read-out: UACC-62. As to the method: (§1) Given the interesting and somewhat unusual trait of G1 arrest, compounds x and y were tested for their ability to induce death in two melanoma cell lines: UACC-62 (human), and B16-F10 (mouse). […] Compounds x and y were also submitted for testing in the NCl 60-cell line assay. […] The triphenylamides (TPAs) induce apoptosis in these melanoma cell lines.

The test system of another series is B16-F10. The series can be described thus: Death induction in melanoma cell line. It counts as cell-based, mouse. The conditions noted are these: Mus musculus, B16-F10; Table 13, B16F10 melanoma; read-out: B16F10. As to the method: as §1
The subject of another series is human bone marrow cells. The series can be described thus: Toxicity to bone marrow cells of a healthy donor, MTS bioreduction after 72 hours. It is filed as cell-based. The conditions noted are these: Bone marrow cell, Table 13, bone marrow cells of healthy donor. The source says:
Specificity for cancer cells. The vast majority of anti-cancer drugs are toxic to all rapidly dividing cell types, often leading to deleterious side effects and a reduced therapeutic window. For instance, hematopoietic bone marrow is responsible for the production of red and white blood cells, and the anemia observed upon treatment with certain chemotherapy agents is in a large part due to the toxicity of the anti-cancer drugs on cells in the human bone marrow. Thus, to determine the relative effect of the triphenylamides on melanoma versus normal cells, cells derived from the human bone marrow of a healthy donor were used; measurement of the effect on healthy bone marrow cells can assist in assessing the toxicity of putative anti-cancer agents. (17-20) These cells were treated with increasing concentrations of the compounds shown in Table 13, and cell viability was evaluated after 72 hours using the MTS bioreduction assay. The data in Table 13 indicate that several of the triphenyl amides have selective toxicity to melanoma cells versus the human bone marrow cells.

Another series has as its system HL-60 cells. As to the kind of experiment: Determination of IC50 values, cell death by MTS/PMS after 72 h. The conditions noted are these: Homo sapiens, HL-60, read-out: HL-60.
Series [2] has as its system U-937 cells. As to the kind of experiment: High-throughput cell death assay on library members (MTS/PMS). The conditions noted are these: library members at 100 μM, 24 hours. It counts as cell-based, human. As to the method: A three-tiered system was devised to identify compounds that selectively induce apoptosis in cancer cells. First, all compounds were screened at 100 μM in a high-throughput manner for their ability to induce death in two cancer cell lines, HL-60 (leukemia) and U-937 (lymphoma).
Test compounds were transferred into the wells using a 96-pin transfer apparatus (V & P Scientific, San Diego Calif.) that transfers 0.2 μL of compound. The compounds were made up as 50 mM stock solutions in 100% EtOH, so one transfer gave a final concentration of 100 μM. Controls were performed in which only EtOH (containing no compound) was pin-transferred into wells containing cells. The cells were incubated with the compounds for 24 hours, and then cell death was quantitated.

The next series is described as follows: in vitro. It counts as cell-based, human. The conditions noted are these: human.
For series [3], the system named is U-937 cells. As to the kind of experiment: Analysis of mitochondria depolarization by flow cytometry (JC-9 dye). It is filed as cell-based, human. As to the method:
Further experiments assessed whether the observed death from 12-D, 13-D, and 15-D was due to apoptosis or necrosis.
Analysis of Mitochondria Depolarization by Flow Cytometry: The depolarization of the mitochondrial membrane was measured by the fluorescence emitted by the JC-9 dye (Molecular Probes, Eugene Oreg.). 100 μM of 13-D or 10 μM etoposide in 1 μL of EtOH were added to cell culture flasks containing 50 mL of 10×10^6 U-937 cells/mL. […] 10 μg of the JC-9 dye was added to 1×10^6 cells in 1 mL and incubated at room temperature for 10 min. Cells were washed twice with PBS and resuspended in a final volume of 500 μL PBS. The fluorescence intensity of each cell was determined by flow cytometry at 525 nm (channel 1 green) and 675 nm (channel 4 red). 50,000 cells were analyzed in each experiment. The data was then analyzed using Summit Software (Cytomation, Fort Collins Colo.) and the number of cells within the upper left region, viable cells, was determined.
Apoptotic assays. To determine whether the observed death was due to apoptosis or necrosis, several apoptotic hallmarks were examined. Thus early stage (mitochondrial membrane depolarization), middle stage (caspase-3 like activation, PARP-1 cleavage) and late stage (chromatin condensation, phosphatidylserine exposure, membrane blebbing) biochemical events were monitored. The depolarization of mitochondrial membranes facilitates the release of pro-apoptotic proteins such as cytochrome c and AIF (apoptosis inducing factor) from the mitochondria into the cytosol. Several dyes, including JC-9, have been developed that provide a sensitive readout on this process. […] The release of pro-apoptotic stimuli from the mitochondria initiates a cascade of events that ultimately results in the activation of the “executioner” caspases, typically caspase-3 and caspase-7. The caspase-3-like activity of the cells can be monitored with peptidic substrates. […] PARP-1 cleavage. A final event in apoptosis is the exposure of phosphatidylserine on the outer leaflet of the cell membrane; this event allows for recognition of apoptotic cells by phagocytes, ultimately leading to the engulfment of the apoptotic cell and the recycling of the various cellular components.
On the technique in general: A flow cytometer gives signals particle by particle.

The subject of series [4] is etoposide induced apoptosis. The series can be described thus: Inhibition of etoposide induced apoptosis. It counts as cell-based.
[5] abbreviates: hit compounds of first generation library, read-out: IC50 Value-U-937 cells.
Where [6] appears, read: Homo sapiens, U-937, hit compounds of first generation library, read-out: IC50 Value-U-937 cells.

Structures are written as SMILES. Read-outs that look alike come from different tables or passages of the source.

The record followed here is US7632972B2, “Compounds and methods for treatment of cancer and modulation of programmed cell death for melanoma and other cancer cells” (The Board of Trustees of the University of Illionis, priority 2003, dated 2009).

Experimental for HL-60 cells: General Cell Culture Conditions: U-937 and HL-60 cell lines were grown in RPMI 1640 supplemented with 10% FBS and incubated at 37° C. in a 5% CO2, 95% air atmosphere and were split every two to three days as necessary.
Cells were then resuspended in RPMI 1640+10% FBS, counted using a hemocytometer and diluted so that 10,000 cells were seeded in to each well of a Corning 96-well flat bottom microtiter plate (Fisher, Chicago Ill.). Media was then added to bring the total volume of each well to 100 μL. Each compound was weighed and then diluted with EtOH to make a 100 mM stock solution. The compounds were added at 9 or more different concentration in 1 μL of EtOH. After a 72 h incubation (37° C. in a 5% CO2, 95% air atmosphere) cell death was quantitated by addition of 20 μL of the MTS/PMS CellTiter 96 Cell Proliferation Assay reagent (Promega, Madison Wis.) to each well. The plates were incubated at 37° C. for approximately 1 hour until the colored product formed and the absorbance was then measured at 490 nm in a Spectra Max Plus 384 plate reader (Molecular Devices, Sunnyvale Calif.). The IC50 was taken as the concentration that caused 50% cell death.

As for `CCCCCCCCCCCCCCCC(=O)N(C)C(C)C(O)c1ccccc1` (centres unmarked), the IC50 in the series on U-937 cell line (Homo sapiens, U-937, read-out: IC50 Value-U-937 cells) was found to be 3.1 µM.

As to `O=C(NC1C2CC3CC(C2)CC1C3)C(c1ccccc1)(c1ccccc1)c1ccccc1` (centres unmarked), the IC50 in the series with U-937 cells [1] was 0.49 µM; in the series on UACC-62, 15.3 µM; with B16-F10, 7.41 µM; in the series with human bone marrow cells, 0.32 µM; in the series with HL-60 cells, 0.92 µM.

With `O=C(CC(c1ccccc1)(c1ccccc1)c1ccccc1)NCCc1cccnc1`, the IC50 in the series with U-937 cells [1] was determined as 0.93 µM; in the series with UACC-62, 0.7 µM; in the series with B16-F10, 1.61 µM; in the series on human bone marrow cells it was 0.68 µM; with HL-60 cells, 1.39 µM.

`COc1ccc(CNC(=O)CC(c2ccccc2)(c2ccccc2)c2ccccc2)c(OC)c1`: the IC50 with U-937 cells [1] amounted to 7.17 µM; in the series on UACC-62, 0.52 µM; in the series with B16-F10, 0.55 µM; in the series with human bone marrow cells, 1.87 µM; with HL-60 cells, 2.26 µM.

In the case of `O=C(NCCc1ccccc1)C(c1ccccc1)(c1ccccc1)c1ccccc1` [drawing 68, R = H], the IC50 in the series on U-937 cell line (setting [5]) turned out to be 8 µM.

For the compound `O=C(NC1CCCc2ccccc21)C(c1ccccc1)(c1ccccc1)c1ccccc1` (centres unmarked), the IC50 in the series on U-937 cells [1] is 1.25 µM; in the series with UACC-62 it was 1.77 µM; in the series with B16-F10 it was 0.98 µM; with human bone marrow cells, 0.5 µM; in the series with HL-60 cells, 2.21 µM.

`COc1cccc(/C=C/C(=O)Nc2cc(OC)c(OC)c(OC)c2)c1`: the IC50 in the series on U-937 cell line (setting [6]) came out at 8 µM.

With `COc1ccc(/C=C/C(=O)NC23CC4CC(CC(C4)C2)C3)c2ccccc12`, in the series with U-937 cell line (setting [6]), the IC50 is 7.1 µM.

With `O=C(NC12CC3CC(CC(C3)C1)C2)C(c1ccccc1)(c1ccccc1)c1ccccc1` [drawing 78], the IC50 with U-937 cells [1] was found to be 0.48 µM; in the series with UACC-62 it was 2.41 µM; in the series with B16-F10 it was 15.7 µM; with human bone marrow cells, 0.59 µM; with HL-60 cells, 0.85 µM.

Regarding `CC(=O)OC(CNC(=O)C(c1ccccc1)(c1ccccc1)c1ccccc1)c1ccccc1` (centres unmarked), the IC50 with U-937 cells [1] came out at 10.8 µM; in the series with UACC-62, 0.62 µM; with B16-F10 it was 0.8 µM; in the series on human bone marrow cells, 4 µM; in the series with HL-60 cells, 16.2 µM.

Regarding `COc1ccc(CNC(=O)C(c2ccccc2)(c2ccccc2)c2ccccc2)cc1`, the IC50 was 8.16 µM with U-937 cells [1]; 0.69 µM with UACC-62; 0.6 µM in the series with B16-F10; 4.77 µM with human bone marrow cells; 10.5 µM with HL-60 cells.

With `COc1cc(/C=C/C(=O)NC[C@H](O)c2ccc(O)cc2)ccc1O` [Compound 15-D, N-[2-(R)-Hydroxy-2-(4-hydroxy-phenyl)-ethyl]-3-(4-hydroxy-3-methoxy-phenyl)-acrylamide], the “Induction of death in U-937 cells (percentages of cell death)” value (“Induction … (percentages of cell death)” below) with U-937 cells [2] came to 89%. This compound displayed an IC50 at 72 h in the series “in vitro” of 109 µM. For the same compound, the “observed death due to apoptosis or necrosis” value in the series on U-937 cells [3] is on record as “induced some apoptosis, some necrosis”.

Turning to `COc1cc(/C=C/C(=O)NC[C@@H](O)c2ccccc2)ccc1O` (stereo in doubt) [Compound 12-D, 3-(4-Hydroxy-3-methoxy-phenyl)-N-(2-hydroxy-2-phenyl-ethyl)-acrylamide], the “Induction … (percentages of cell death)” value with U-937 cells [2] came to 82%. The compound further showed an IC50 at 72 h in “in vitro” of 61 µM. Besides, in the series on U-937 cells [3], the “observed death due to apoptosis or necrosis” value was “induced some apoptosis, some necrosis”.

Consider `COc1ccc(CCNC(=O)CC(c2ccccc2)(c2ccccc2)c2ccccc2)cc1OC` [drawing 69, R1 = H, R2 = OCH3, R3 = OCH3], for which the IC50 in the series on U-937 cell line (setting [5]) came to 18.3 µM.

As to `COc1cc(/C=C/C(=O)NC[C@@H](OC)c2ccc(O)cc2)ccc1O` [Compound 9-D, 3-(4-Hydroxy-3-(S)-methoxy-phenyl)-N-[2-(4-hydroxy-phenyl)-2-methoxy-ethyl]-acrylamide], the “Induction … (percentages of cell death)” value in the series on U-937 cells [2] is on record as 20%. In “in vitro”, the IC50 at 72 h came out at 273 µM. In addition, the “activity in assays exploring inhibition of etoposide induced apoptosis” value in series [4] is on record as “Neither compound 1 nor any library members showed activity”.

On to `COc1ccccc1CCNC(=O)CC(c1ccccc1)(c1ccccc1)c1ccccc1` [drawing 69, R1 = OCH3, R2 = H, R3 = H], for which the IC50 with U-937 cell line (setting [5]) worked out at 15.7 µM.
